Patent publication US7563796B2, “Diphenylimidazopyrimidines as inhibitors of β-secretase” (Wyeth, priority 2005, dated 2009)
Structures can show the parent of a compound that is named as a salt.

Assays:
human BACE1 = human BACE1 (Homo sapiens, UniProt P56817); test: Fluorescent kinetic assay, BACE1 inhibition (substrate WABC-6 cleavage); assay type: biochemical; conditions: for IC50: 10 nM enzyme, 25 μM substrate WABC-6, pH 4.5, room temperature; for inhibition at 25 µM: read-out: BACE1 % inhibition at 25 μM, at 25 μM inhibitor
Protocol: Evaluation of BACE-1 Binding Affinity of Test Compounds
1. Fluorescent Kinetic Assays
Dilution and mixing steps: total reaction volume: 100 μL
100 μM substrate dilution in 1X PBS was prepared, and
Fluorescence Readings: Readings at λex 320 nm and λem 420 nm are taken every 40 sec for 30 min at room temperature and the linear slope for substrate cleavage rate (vi) determined.

Chain of human BACE1 (P56817 46-501): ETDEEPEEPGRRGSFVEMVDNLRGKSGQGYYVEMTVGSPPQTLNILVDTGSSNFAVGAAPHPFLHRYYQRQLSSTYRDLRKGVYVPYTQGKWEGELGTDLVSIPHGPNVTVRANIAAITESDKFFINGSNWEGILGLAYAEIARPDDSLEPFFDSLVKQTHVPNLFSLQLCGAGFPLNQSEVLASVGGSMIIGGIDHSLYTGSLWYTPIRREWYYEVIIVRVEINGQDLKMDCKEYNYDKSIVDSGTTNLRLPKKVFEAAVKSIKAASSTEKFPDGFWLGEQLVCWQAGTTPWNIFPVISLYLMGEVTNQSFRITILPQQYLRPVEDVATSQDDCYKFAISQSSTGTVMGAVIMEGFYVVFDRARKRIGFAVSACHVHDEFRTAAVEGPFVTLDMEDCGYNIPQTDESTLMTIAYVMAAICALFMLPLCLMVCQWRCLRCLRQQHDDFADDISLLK

CCC(=O)Nc1cccc(C2(c3ccc(OC(F)(F)F)cc3)N=C(N)N3CCCN=C32)c1 (stereo not shown) (as salt: hydrochloride) [Example 16, N-{3-[6-Amino-8-(4-trifluoromethoxy-phenyl)-2,3,4,8-tetrahydroimidazo[1,5-a]pyrimidin-8-yl]-phenyl}-propionamide hydrochloride] showed a melting point of 148 to 150 °C.

CC(C)(C)c1ccc(C2(c3ccccc3)N=C(N)N3CCCN=C32)cc1 (stereo not shown) [Example 1, 8-(4-tert-Butylphenyl)-8-phenyl-2,3,4,8-tetrahydroimidazol[1,5-a]pyrimidin-6-amine] showed an IC50 (human BACE1) of 30 µM and a melting point of 139 °C.

In the case of NC1=NC(c2ccccc2)(c2cccc(Cc3ccccc3)c2)C2=NCCCN12 (stereo not shown) [Example 2, 8-(3-Benzylphenyl)-8-phenyl-2,3,4,8-tetrahydroimidazol[1,5-a]pyrimidin-6-amine], the IC50 (human BACE1) is reported as 5.3 µM and the melting point is reported as 80 °C.

NC1=NC(c2ccccc2)(c2cccc(Oc3ccc(F)cc3)c2)C2=NCCCN12 (stereo not shown) [Example 3, 8-[3-(4-Fluorophenoxy)phenyl]-8-phenyl-2,3,4,8-tetrahydroimidazo[1,5-a]pyrimidin-6-amine] gave an IC50 (human BACE1) of 4.7 µM and a melting point of 165 °C.

COc1ccc(Cc2cccc(C3(c4ccccc4)N=C(N)N4CCCN=C43)c2)cc1 (stereo not shown) [Example 4, 8-[3-(4-Methoxybenzyl)phenyl]-8-phenyl-2,3,4,8-tetrahydroimidazo[1,5-a]pyrimidin-6-amine] showed an IC50 (human BACE1) of 7.1 µM and a melting point of 132 °C.

In the case of NC1=NC(c2ccccc2)(c2cccc(Cc3ccc(F)cc3)c2)C2=NCCCN12 (stereo not shown) [Example 5, 8-[3-(4-Fluorobenzyl)phenyl]-8-phenyl-2,3,4,8-tetrahydroimidazo[1,5-a]pyrimidin-6-amine], the IC50 (human BACE1) is reported as 8.2 µM and the melting point is reported as 152 °C.

Work on NC1=NC(c2ccccc2)(c2cccc(C(F)(F)F)c2)C2=NCCCN12 (stereo not shown) [Example 6, 8-Phenyl-8-[3-(trifluoromethyl)phenyl]-2,3,4,8-tetrahydroimidazo[1,5-a]pyrimidin-6-amine] yielded an inhibition at 25 µM (human BACE1) of 48%.

For COc1cccc(C2(c3ccccc3)N=C(N)N3CCCN=C32)c1 (stereo not shown) [Example 7, 8-(3-Methoxyphenyl)-8-phenyl-2,3,4,8-tetrahydroimidazo[1,5-a]pyrimidin-6-amine], the inhibition at 25 µM (human BACE1) was 49%.

Molecule CCCOc1cccc(C2(c3ccc(OC)c(C)c3)N=C(N)N3CCN=C32)c1 (stereo not shown) [Example 8, 7-(4-Methoxy-3-methylphenyl)-7-(3-propoxyphenyl)-2,7-dihydro-3H-imidazo[1.5-a]imidazol-5-amine] has an IC50 (human BACE1) of 0.4 µM.

In the case of CCCOc1cccc(C2(c3ccc(OC)c(C)c3)N=C(N)N3CCCN=C32)c1 (stereo not shown) [Example 9, 8-(4-Methoxy-3-methylphenyl)-8-(3-propoxyphenyl)-2,3,4,8-tetrahydroimidazo[1,5-a]pyrimidin-6-amine], the IC50 (human BACE1) is reported as 0.3 µM.

In the case of CCCOc1cccc(C2(c3ccc(OC)c(C)c3)N=C(N)N3CC(C)(C)CN=C32)c1 (stereo not shown) [Example 10, 8-(4-Methoxy-3-methylphenyl)-3,3-dimethyl-8-(3-propoxyphenyl)-2,3,4,8-tetrahydroimidazo[1,5-a]pyrimidin-6-amine], the IC50 (human BACE1) is reported as 1.1 µM.

In the case of NC1=NC(c2ccc(OC(F)(F)F)cc2)(c2cccc(CCC3CC3)c2)C2=NCCCN12 (stereo not shown) [Example 12, 8-[3-(2-Cyclopropyl-ethyl)-phenyl]-8-(4-trifluoromethoxy-phenyl)-2,3,4,8-tetrahydro-imidazo[1,5-a]pyrimidin-6-ylamine], the IC50 (human BACE1) is reported as 0.21 µM and the melting point is reported as 65 to 77 °C.

In the case of C=CCc1cccc(C2(c3ccc(OC(F)(F)F)cc3)N=C(N)N3CCCN=C32)c1 (stereo not shown) [Example 13, 8-(3-Allylphenyl)-8-(4-trifluoromethoxyphenyl)-2,3,4,8-tetrahydro-imidazo[1,5-a]pyrimidin-6-ylamine], the inhibition at 5 µM (human BACE1; read-out: BACE1 % inhibition at 5 μM, at 5 μM inhibitor) is reported as 53% and the melting point is reported as 89 to 111 °C.

CCCc1cccc(C2(c3ccc(OC(F)(F)F)cc3)N=C(N)N3CCCN=C32)c1 (stereo not shown) [Example 14, 8-(3-Propyl-phenyl)-8-(4-trifluoromethoxy-phenyl)-2,3,4,8-tetrahydro-imidazo[1,5-a]pyrimidin-6-ylamine] showed an IC50 (human BACE1) of 1.43 µM and a melting point of 75 to 79 °C.

Molecule CCNC(=O)c1cccc(C2(c3ccc(OC(F)(F)F)cc3)N=C(N)N3CCCN=C32)c1 (stereo not shown) [Example 15, 3-[6-Amino-8-(4-trifluoromethoxy-phenyl)-2,3,4,8-tetrahydroimidazo[1,5-a]pyrimidin-8-yl]-N-ethyl-benzamide] has an inhibition at 0.5 µM (human BACE1; read-out: BACE1 % inhibition at 0.5 μM, at 0.5 μM inhibitor) of 40% and a melting point of 129 to 136 °C.

Work on CCC(=O)Nc1cccc(C2(c3ccc(OC(F)(F)F)cc3)N=C(N)N3CCCN=C32)c1 (stereo not shown) [Example 16, N-{3-[6-Amino-8-(4-trifluoromethoxy-phenyl)-2,3,4,8-tetrahydroimidazo[1,5-a]pyrimidin-8-yl]-phenyl}-propionamide hydrochloride] yielded an inhibition at […] (human BACE1; read-out: BACE1 % inhibition at […], at 2.5 μM inhibitor) of 43%.
